Test results from PMC8116805, “Inhibition of the Proliferation of Human Lung Fibroblasts by Prostacyclin Receptor Agonists is Linked to a Sustained cAMP Signal in the Nucleus” (Frontiers in Pharmacology, 2021).

What was measured:
[1] = target: T1, prostacyclin receptor (IPR) (Homo sapiens, UniProt P43119); experiment: cAMP accumulation (LANCE) in human lung fibroblasts, endogenous receptor; partial agonist; format: cell-based
T1 construct: gene PTGIR

[2] = target: T1, prostacyclin receptor (IPR); experiment: cAMP accumulation (LANCE) in human lung fibroblasts, endogenous receptor; about […] blocked by IPR antagonist RO-1138452; format: cell-based

T1 sequence (P43119 1-383): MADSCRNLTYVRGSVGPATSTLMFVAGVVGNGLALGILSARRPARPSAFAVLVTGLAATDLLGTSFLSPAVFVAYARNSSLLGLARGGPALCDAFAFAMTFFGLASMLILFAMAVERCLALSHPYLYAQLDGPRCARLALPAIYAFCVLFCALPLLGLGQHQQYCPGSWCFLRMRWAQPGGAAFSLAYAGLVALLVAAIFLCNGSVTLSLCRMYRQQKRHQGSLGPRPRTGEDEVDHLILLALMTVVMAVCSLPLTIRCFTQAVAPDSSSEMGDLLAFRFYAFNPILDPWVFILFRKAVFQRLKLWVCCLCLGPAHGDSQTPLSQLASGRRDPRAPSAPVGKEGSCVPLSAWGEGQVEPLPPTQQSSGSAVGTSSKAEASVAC

| Structure (SMILES) | EC50 [1] [nM] | EC50 [2] [nM] |
| --- | --- | --- |
| CC(C)N(CCCCOCC(=O)O)c1cnc(-c2ccccc2)c(-c2ccccc2)n1 [MRE-269, {4-[(5,6-Diphenylpyrazin-2-yl)(isopropyl)amino]butoxy}acetic Acid] | 200 | – |
| CCCCC[C@H](O)CC[C@@H]1[C@H]2Cc3cccc(OCC(=O)O)c3C[C@H]2C[C@H]1O [treprostinil] | – | 64 |
